Data reported in patent US12252644B2, “Polarizer and image display device” (FUJIFILM Corporation, priority 2019, dated 2025).

experiment: Measurement of maximum absorption wavelength; format: physicochemical; details: solution in a good solvent, spectrophotometer UV-3150, 250 to 800 nm
Experimental: The maximum absorption wavelength (nm) of the dichroic material in the present specification is acquired from an ultraviolet visible spectrum in a wavelength range of 380 to 800 nm measured by a spectrophotometer using a solution prepared by dissolving the dichroic material in a good solvent.
The maximum absorption wavelengths of the dichroic materials used in the examples and the comparative examples were measured. The maximum absorption wavelength was acquired from the ultraviolet visible light spectrum in a wavelength range of 250 to 800 nm which was measured by a spectrophotometer (product name, “UV-3150”, manufactured by Shimadzu Corporation) using a solution in which the dichroic material was dissolved in a good solvent.

SMILES	Third dichroic material maximum absorption wavelength [nm]	Second dichroic material maximum absorption wavelength [nm]	First dichroic material maximum absorption wavelength [nm]
C=CC(=O)OCCCCOc1ccc(N=Nc2ccc(N=Nc3ccc(N=Nc4ccc(OCCCCOC(C)=O)cc4)cc3)c(C)c2)cc1 [Example Y-1]	418		
CCC(=O)OCCCCCCCCCOc1ccc(N=Nc2ccc(N=Nc3ccc(N(CC)CCC#N)cc3)cc2)c(Cl)c1 [Example M-4]		460	
C=CC(=O)OCCN(CC)c1ccc(N=Nc2ccc(N=Nc3ccc(OCCCCCCCCCOC(=O)CC)cc3)cc2)cc1 [Example M-3]		471	
CC(=O)OCCCCCCCCCOc1ccc(N=Nc2ccc(N=Nc3ccc(N(C)CCOC(C)=O)cc3)cc2)cc1 [Example M-6]		465	
CCN(CC)c1ccc(N=Nc2ccc(N=Nc3ccc(OCCCCCCCCCOC(C)=O)cc3)cc2)cc1 [Example M-5]		484	
C=CC(=O)OCCN(CC)c1ccc(N=Nc2nc3sc(N=Nc4ccc(OCCCCCCCCCOC(C)=O)cc4)cc3s2)cc1 [Example C-1]			591
CCC(=O)OCCCCCCCCCOc1ccc(N=Nc2ccc(N=Nc3ccc(N(CC)CCOC(=O)CC)cc3)cc2)cc1 [Example M-2]		471	
CCC(=O)OCCN(C)c1ccc(N=Nc2ccc(N=Nc3ccc(OCCCCCCCCCOC(C)=O)cc3)cc2)cc1 [Example M-1]		466	
CCOC(=O)CCCCOc1ccc(N=Nc2ccc(N=Nc3ccc(N=Nc4ccc(OCCCCC(=O)OCC)cc4)cc3C)cc2)cc1 [Example Y-2]	418		
